Test results as given in patent publication US5532267A, “Amidinonaphthyl furancarboxylate derivatives and acid addition salts therof” (Torii & Co., Ltd., priority 1992, dated 1996).
Where a name gives a salt, the structure may show the parent alone. Read-outs that look alike come from different tables or passages of the source.

Key:
Type in all cases: biochemical
[1] = molecular target: T1, C1s (Homo sapiens, UniProt P09871); assay: anti-complement (anti-C1 esterase) activity, C1s hydrolysis of ATEE (acetyltyrosine ethyl ester); settings: for IC50: hydrolysis of ATEE, read-out: Cls: molar concentration inhibiting 50% of C1s activity (IC50)
T1 sequence (P09871 16-688): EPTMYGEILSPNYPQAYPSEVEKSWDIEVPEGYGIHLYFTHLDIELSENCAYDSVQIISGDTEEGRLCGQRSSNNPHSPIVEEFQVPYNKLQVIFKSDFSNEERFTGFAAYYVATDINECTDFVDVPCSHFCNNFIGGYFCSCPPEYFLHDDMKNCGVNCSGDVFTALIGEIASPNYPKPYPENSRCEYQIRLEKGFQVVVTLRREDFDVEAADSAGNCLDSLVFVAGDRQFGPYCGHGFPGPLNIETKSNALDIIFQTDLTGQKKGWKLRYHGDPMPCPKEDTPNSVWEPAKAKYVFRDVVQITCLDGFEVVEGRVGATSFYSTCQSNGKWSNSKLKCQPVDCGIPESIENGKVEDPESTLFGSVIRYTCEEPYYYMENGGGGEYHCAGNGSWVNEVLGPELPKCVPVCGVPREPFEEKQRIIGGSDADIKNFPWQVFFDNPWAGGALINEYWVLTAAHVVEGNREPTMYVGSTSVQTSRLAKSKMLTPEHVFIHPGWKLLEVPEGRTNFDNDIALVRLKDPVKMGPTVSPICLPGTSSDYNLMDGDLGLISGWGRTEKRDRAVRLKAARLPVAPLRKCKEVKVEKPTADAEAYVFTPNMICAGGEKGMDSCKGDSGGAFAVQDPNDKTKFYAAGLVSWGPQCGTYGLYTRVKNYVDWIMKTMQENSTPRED
Method: The anti-C1 esterase (C1r, C1s) activity was determined according to the method of Okamura et al. (Biochem. Biophys. Acta (1973), volume 295, pages 252-257). […] The values for C1s represent molar concentrations (IC50) of test compounds which inhibit 50% of the activity of C1s to hydrolyze ATEE (acetyltyrosine ethyl ester).

[2] = test system: kallikrein; assay: anti-kallikrein activity, hydrolysis of TAME (tosylarginine methyl ester); settings: for IC50: hydrolysis of TAME, read-out: Kal: molar concentration inhibiting 50% of enzyme activity (IC50); for Kal: percentage inhibition: at a concentration of 1 × 10^-5 M
Method: (§1) The values in Table 1 represent molar concentrations (IC50) of test compounds which inhibit 50% of the activity of each enzyme to hydrolyze TAME (tosylarginine methyl ester). The anti-trypsin, anti-plasmin, anti-kallikrein and anti-thrombin activities were determined according to the method of Muramatsu et al. (J. Biochem. (1965), volume 58, page 214).

[3] = molecular target: thrombin (Homo sapiens, UniProt P00734); assay: anti-thrombin activity, hydrolysis of TAME (tosylarginine methyl ester); settings: for IC50: hydrolysis of TAME, read-out: Thr: molar concentration inhibiting 50% of enzyme activity (IC50); for inhibition at 10 µM: at a concentration of 1 × 10^-5 M, read-out: Thr: percentage inhibition
Method: as §1

[4] = molecular target: T2, C1r (Homo sapiens, UniProt P00736); assay: anti-complement (anti-C1 esterase) activity, C1r hydrolysis of AAME (acetyl-arginine methyl ester); settings: for inhibition at 10 µM: read-out: Clr: percentage inhibition
T2 sequence (P00736 18-705): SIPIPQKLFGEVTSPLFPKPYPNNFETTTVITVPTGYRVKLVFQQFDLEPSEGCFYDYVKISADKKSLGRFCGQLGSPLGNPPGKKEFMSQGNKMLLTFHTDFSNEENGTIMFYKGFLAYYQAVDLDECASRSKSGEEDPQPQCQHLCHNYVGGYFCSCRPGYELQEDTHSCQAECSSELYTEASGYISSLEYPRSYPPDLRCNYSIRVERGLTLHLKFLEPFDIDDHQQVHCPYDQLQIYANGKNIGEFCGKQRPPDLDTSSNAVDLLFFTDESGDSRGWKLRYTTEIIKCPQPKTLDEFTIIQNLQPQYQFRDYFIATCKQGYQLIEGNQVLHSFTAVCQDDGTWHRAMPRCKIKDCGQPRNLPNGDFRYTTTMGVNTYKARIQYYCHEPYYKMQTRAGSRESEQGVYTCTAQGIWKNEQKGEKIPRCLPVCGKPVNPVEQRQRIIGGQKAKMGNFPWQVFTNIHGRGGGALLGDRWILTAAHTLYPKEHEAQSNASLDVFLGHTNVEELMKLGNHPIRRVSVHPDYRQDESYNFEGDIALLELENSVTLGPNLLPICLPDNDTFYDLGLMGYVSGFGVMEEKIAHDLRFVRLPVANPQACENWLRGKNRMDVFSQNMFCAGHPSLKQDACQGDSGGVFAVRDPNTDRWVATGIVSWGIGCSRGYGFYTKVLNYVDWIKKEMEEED

[5] = molecular target: T3, trypsin (Bos taurus, UniProt P00760); assay: anti-trypsin activity, hydrolysis of TAME (tosylarginine methyl ester)
T3 sequence (P00760 24-246): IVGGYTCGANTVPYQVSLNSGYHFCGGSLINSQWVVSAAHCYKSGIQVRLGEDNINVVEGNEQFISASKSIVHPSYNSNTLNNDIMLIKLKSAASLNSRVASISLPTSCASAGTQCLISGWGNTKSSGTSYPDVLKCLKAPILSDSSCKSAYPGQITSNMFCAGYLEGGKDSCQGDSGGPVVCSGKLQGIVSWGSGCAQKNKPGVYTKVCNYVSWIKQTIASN

[6] = molecular target: plasmin (Homo sapiens, UniProt P00747); assay: anti-plasmin activity, hydrolysis of TAME (tosylarginine methyl ester)
plasmin, sequence (P00747 581-810 limits assumed, species assumed): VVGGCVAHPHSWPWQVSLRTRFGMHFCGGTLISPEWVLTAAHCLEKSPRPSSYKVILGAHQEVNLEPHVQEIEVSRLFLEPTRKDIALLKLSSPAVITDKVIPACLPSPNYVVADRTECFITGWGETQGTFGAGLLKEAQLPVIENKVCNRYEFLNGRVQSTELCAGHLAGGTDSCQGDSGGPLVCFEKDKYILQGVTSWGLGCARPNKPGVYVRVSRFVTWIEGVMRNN
plasmin, sequence (P00747 97-580 partner limits assumed, species assumed): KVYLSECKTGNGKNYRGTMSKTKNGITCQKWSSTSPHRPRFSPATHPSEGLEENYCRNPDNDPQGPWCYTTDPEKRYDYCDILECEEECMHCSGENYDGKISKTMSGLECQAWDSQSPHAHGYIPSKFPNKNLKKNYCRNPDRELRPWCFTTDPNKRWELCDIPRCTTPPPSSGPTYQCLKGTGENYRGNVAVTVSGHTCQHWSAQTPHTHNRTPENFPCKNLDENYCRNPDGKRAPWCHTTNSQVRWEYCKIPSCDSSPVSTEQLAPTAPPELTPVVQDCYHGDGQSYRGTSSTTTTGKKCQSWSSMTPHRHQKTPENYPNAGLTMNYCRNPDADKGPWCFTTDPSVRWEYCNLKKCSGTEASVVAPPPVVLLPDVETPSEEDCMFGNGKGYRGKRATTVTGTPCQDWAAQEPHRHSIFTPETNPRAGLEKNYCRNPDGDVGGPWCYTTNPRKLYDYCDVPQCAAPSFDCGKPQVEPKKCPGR
Method: as §1

[7] = hydrolysis of AAME, read-out: Clr: molar concentration inhibiting 50% of C1r activity (IC50)
[8] = hydrolysis of TAME, read-out: Try: molar concentration inhibiting 50% of enzyme activity (IC50)
[9] = hydrolysis of TAME, read-out: Pla: molar concentration inhibiting 50% of enzyme activity (IC50)

| Structure (SMILES) | IC50 [1] [µM] | IC50 [2] [µM] | IC50 [3] [µM] | IC50 [4, 7] [µM] | IC50 [5, 8] [µM] | IC50 [6, 9] [µM] | IC50 [5] [µM] | IC50 [4] [µM] | inhibition at 10 µM ([1]; read-out: Cls: percentage inhibition) [%] | Kal: percentage inhibition [2] [%] | inhibition at 10 µM [3] [%] | inhibition at 10 µM ([4]; at a concentration of 1 × 10^-5 M) [%] | IC50 [6] [µM] | inhibition at 10 µM [4] [%] | inhibition at 10 µM ([5]; read-out: Try: percentage inhibition) [%] |
| --- | --- | --- | --- | --- | --- | --- | --- | --- | --- | --- | --- | --- | --- | --- | --- |
| N=C(N)c1ccc2cc(OC(=O)c3ccc(CNC(=O)C=Cc4ccc(C(=O)O)cc4)o3)ccc2c1 [Example 8, 6-Amidino-2-naphthyl 5-(4-carboxycinnamoylaminomethyl)furan-2-carboxylate hydrochloride] | 2 | 2.7 | 1.4 | 0.83 | 2.1 | 1.1 |  |  |  |  |  |  |  |  |  |
| CC(C)(C)OC(=O)CC(=O)NCc1ccc(C(=O)Oc2ccc3cc(C(=N)N)ccc3c2)o1 [Example 15, 6-Amidino-2-naphthyl 5-t-butoxymalonylaminomethylfuran-2-carboxylate hydrochloride] | 0.23 | 0.32 | 0.4 | 0.84 | 0.71 | 0.31 |  |  |  |  |  |  |  |  |  |
| N=C(N)c1ccc2cc(OC(=O)c3ccc(CNC(=O)C(=O)O)o3)ccc2c1 [Example 16, 6-Amidino-2-naphthyl 5-oxaloaminomethylfuran-2-carboxylate hydrochloride] | 0.35 | 3.8 | 1.3 | 6.9 | 0.34 | 0.24 |  |  |  |  |  |  |  |  |  |
| CC(C)(C)OC(=O)C=Cc1ccc(C(=O)NCc2ccc(C(=O)Oc3ccc4cc(C(=N)N)ccc4c3)o2)cc1 [Example 1, 6-Amidino-2-naphthyl 5-[4-(2-t-butoxycarbonylvinyl)benzoylaminomethyl]furan-2-carboxylate hydrobromide] | 0.27 | 0.47 | 0.35 | 0.34 |  | 0.15 | 0.35 |  |  |  |  |  |  |  |  |
| N=C(N)c1ccc2cc(OC(=O)c3ccc(CNC(=O)[C@H]4CC[C@@H](C(=O)O)CC4)o3)ccc2c1 [Example 10, 6-Amidino-2-naphthyl 5-(cis-4-carboxy-1-cyclohexanoylaminomethyl)furan-2-carboxylate hydrochloride] | 0.026 | 0.25 | 1.6 |  | 0.6 | 0.15 |  | 0.16 |  |  |  |  |  |  |  |
| Cl.N=C(N)c1ccc2cc(OC(=O)c3ccc(CNC(=O)c4ccc(C=CC(=O)O)cc4)o3)ccc2c1 [Example 2, 6-Amidino-2-naphthyl 5-[4-(2-carboxyvinyl)benzoylaminomethyl]furan-2-carboxylate hydrochloride] |  |  |  |  | 8.4 | 4.8 |  |  | 17 | 46 | 47 | 29 |  |  |  |
| CC(C)(C)OC(=O)CCC(=O)NCc1ccc(C(=O)Oc2ccc3cc(C(=N)N)ccc3c2)o1 [Example 18, 6-amidino-2-naphthyl 5-(3-t-butoxycarbonylpropionylaminomethyl)furan-2-carboxylate hydrochloride] | 0.19 | 0.21 | 0.35 | 0.34 | 0.4 |  |  |  |  |  |  |  | 0.19 |  |  |
| CC(C)(C)OC(=O)CCC(NC(=N)N)C(=O)NCc1ccc(C(=O)Oc2ccc3cc(C(=N)N)ccc3c2)o1 (stereo not drawn) [Example 20, 6-amidino-2-naphthyl 5-(4-t-butoxycarbonyl-2-guanidinobutyrylaminomethyl)furan-2-carboxylate hydrochloride hydrobromide] | 0.39 | 0.13 | 0.46 | 0.38 | 2 | 0.18 |  |  |  |  |  |  |  |  |  |
| CC(C)(C)OC(=O)c1ccc(CC(=O)NCc2ccc(C(=O)Oc3ccc4cc(C(=N)N)ccc4c3)o2)cc1 [Example 5, 6-Amidino-2-naphthyl 5-(4-t-butoxycarbonylphenylacetylaminomethyl)furan-2-carboxylate hydrochloride] | 0.36 | 0.3 | 0.18 | 0.073 | 0.34 | 0.1 |  |  |  |  |  |  |  |  |  |
| COC(=O)Cc1ccc(C(=O)NCc2ccc(C(=O)Oc3ccc4cc(C(=N)N)ccc4c3)o2)cc1 [Example 4, 6-Amidino-2-naphthyl 5-(4-methoxycarbonylmethylbenzoylaminomethyl)furan-2-carboxylate hydrochloride] | 0.16 | 0.21 | 0.07 | 0.064 | 0.34 | 0.072 |  |  |  |  |  |  |  |  |  |
| Cl.N=C(N)c1ccc2cc(OC(=O)c3ccc(CNC(=O)c4ccc(C(=O)O)cc4)o3)ccc2c1 [Example 3, 6-Amidino-2-naphthyl 5-(4-carboxybenzoylaminomethyl)furan-2-carboxylate hydrochloride] | 3.4 |  |  |  |  | 8.6 |  |  |  | 33 | 26 |  |  | 34 | 48 |
| Cc1oc(=O)oc1COC(=O)CCC(=O)NCc1ccc(C(=O)Oc2ccc3cc(C(=N)N)ccc3c2)o1 [Example 33, 6-Amidino-2-naphthyl 5-{[3-(4-methyl-1,3-dioxole-2-one-5-yl)methoxycarbonyl]propionylaminomethyl}furan-2-carboxylate hydrochloride] | 0.22 | 0.58 | 0.023 | 0.14 | 6.6 | 0.084 |  |  |  |  |  |  |  |  |  |
| N=C(N)c1ccc2cc(OC(=O)c3ccc(CNC(=O)CCC(=O)O)o3)ccc2c1 [Example 21, 6-amidino-2-naphthyl 5-(3-carboxypropionylaminomethyl)furan-2-carboxylate hydrochloride] | 0.18 | 0.7 | 0.96 | 0.54 | 0.31 | 0.33 |  |  |  |  |  |  |  |  |  |
| N=C(N)c1ccc2cc(OC(=O)c3ccc(CNC(=O)c4ccc(CC(=O)O)cc4)o3)ccc2c1 [Example 7, 6-Amidino-2-naphthyl 5-(4-carboxymethylbenzoylaminomethyl)furan-2-carboxylate hydrochloride] | 0.46 | 1.5 | 0.4 | 0.74 | 1.8 | 0.3 |  |  |  |  |  |  |  |  |  |
| N=C(N)NC(CCC(=O)O)C(=O)NCc1ccc(C(=O)Oc2ccc3cc(C(=N)N)ccc3c2)o1 (stereo not drawn) [Example 29, 6-Amidino-2-naphthyl 5-(4-carboxy-2-guanidinobutyrylaminomethyl)furan-2-carboxylate dihydrobromide] | 0.36 | 0.24 | 1.6 | 0.44 | 1.2 | 0.23 |  |  |  |  |  |  |  |  |  |
| N=C(N)c1ccc2cc(OC(=O)c3ccc(CNC(=O)c4ccc(CCC(=O)O)cc4)o3)ccc2c1 [Example 9, 6-Amidino-2-naphthyl 5-[4-(2-carboxyethyl)benzoylaminomethyl]furan-2-carboxylate hydrochloride] | 2.3 | 6 | 0.65 | 2.8 | 4.8 | 0.5 |  |  |  |  |  |  |  |  |  |
